Source: US6887691B2, “DNA coding for protein which confers on bacterium Escherichia coli resistance to L-homoserine, and method for producing L-amino acids” (priority 1998, dated 2005)

What was measured:
Assay in all cases: MIC of amino acids and amino acid analogues on M9 agar test plates
Format in all cases: cell-based
[1] = test system: E. coli strain N99 rhtB::cat; details: Escherichia coli
Experimental: To inactivate the chromosomal rhtB gene the plasmid pNPZ46 was constructed (FIG. 1) on the basis of pUK21 vector. It harbors a DNA fragment from 86 min of E. coli chromosome, with the rhtB gene and 5′-flanking and 3′-flanking regions thereof. Then the ClaI-Eco47III fragment of the pNPZ46 plasmid rhtB gene was substituted for AsuII-BsrBI fragment containing cat (Cm^R) gene of pACYC184 plasmid (Chang and Cohen, J. Bacteriol., 134, 1141-1156, 1978) giving the pNPZ47 plasmid (FIG. 1). To introduce the obtained insertionally inactivated rhtB gene into the chromosome of the E. coli strain N99 (the streptomycin-resistant derivative of the known strain W3350 (Campbell, Virology, 14, 22-33, 1961)), the method of Parker and Marinus was used (Parker, B. and Marinus, M. G., Gene, 73, 531-535, 1988).
(§1) Then the susceptibility of the thus obtained E. coli strain N99 rhtB::cat, of the initial strain N99 (rhtB^+) and of its derivative transformed with pRhtB plasmid, N99/pRhtB, to some amino acids and amino acid analogues was tested. overnight cultures of the strains grown in M9 minimal medium at 37° C. with a rotary shaker (10^9 cfu/ml) were diluted 1:100 and grown for 5 hours under the same conditions. Then the log phase cultures thus obtained were diluted and about 10^4 of alive cells were applied to well-dried test plates with M9 agar containing doubling increments of amino acids or analogues. The minimum inhibitory concentration (MIC) of these compounds were examined after 40-46 h cultivation.

[2] = test system: E. coli strain N99/pRhtB; details: Escherichia coli
Experimental: as §1

[3] = test system: E. coli strain N99 (rhtB+); details: Escherichia coli, initial strain, doubling increments, examined after 40-46 h cultivation
Experimental: as §1

SMILES	MIC [1] [µg/mL]	MIC [2] [µg/mL]	MIC [3] [µg/mL]
CN(C)CC(N)C(=O)O (racemic) [4-aza-DL-leucine, reference compound]	40	100	40
NCCSC[C@H](N)C(=O)O [AEC, S-(2-aminoethyl)-L-cysteine, reference compound]	10	25	10
CCCC(N)(O)C(=O)O (stereo not drawn) [AHVA, α-amino-α-hydroxyvaleric-acid, reference compound]	25	2000	50
N[C@@H](CCO)C(=O)O [L-homoserine]	125	30000	250
N[C@@H](CO)C(=O)O [L-serine]	5000	10000	5000
C[C@@H](O)[C@H](N)C(=O)O [L-threonine]	30000	50000	30000
CC(C)[C@H](N)C(=O)O [L-valine]	0.5	1	0.5
